Values joined by “and” are separate entries in the source; they are usually repeats but may differ in a detail not shown here. Equal values may be shown once.
How the values were obtained:
Assay type in all cases: biochemical
[1] = molecular target: KRAS G12C (Homo sapiens (Human), UniProt P01116+P62937, G12C); assay: Ras-Raf disruption/FRET/MOA assay (BRAF RBD, Cyclophilin A); details: read-out: KRAS G12C FRET IC50
Outline: (§1)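 25 μM tagless Cyclophilin A, 12.5 nM His6-Ras-GMPPNP and 50 nM GST-BRAF RBD in HEPES pH 7.3 buffer with 5 mM MgCl2, with compound (10-point 3-fold series from 30 μM final) for 3 h at 25 °C. Anti-His Eu and anti-GST APC then added for 1.5 h. IC50 from TR-FRET ratio decrease versus DMSO.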

[2] = molecular target: KRAS G12D (Homo sapiens (Human), UniProt P01116+P62937, G12D); assay: as above; details: read-out: KRAS G12D FRET IC50
Outline: as §1

[3] = molecular target: KRAS G12S (Homo sapiens (Human), UniProt P01116+P62937, G12S); assay: as above; details: read-out: KRAS G12S FRET IC50
Outline: as §1

[4] = molecular target: KRAS G12V (Homo sapiens (Human), UniProt P01116+P62937, G12V); assay: as above; details: read-out: KRAS G12V FRET IC50
Outline: as §1

[5] = molecular target: KRAS G13C (Homo sapiens (Human), UniProt P01116+P62937, G13C); assay: as above; details: read-out: KRAS G13C FRET IC50
Outline: as §1

[6] = molecular target: KRAS G13D (Homo sapiens (Human), UniProt P01116+P62937, G13D); assay: as above; details: read-out: KRAS G13D FRET data IC50
Outline: as §1

[7] = molecular target: KRAS Q61H (Homo sapiens (Human), UniProt P01116+P62937, Q61H); assay: as above
Outline: as §1

[8] = molecular target: NRAS G12C (Homo sapiens (Human), UniProt P01111+P62937, G12C); assay: as above; details: read-out: NRAS G12C FRET data IC50
Outline: (§2)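 Measured: compound-facilitated Cyclophilin A:Ras complex blocking RAF RBD binding. Conditions: 12.5 nM Ras-GMPPNP, 50 nM BRAF RBD, 25 μM CypA, 3 h plus 1.5 h detection. Output: IC50 from TR-FRET ratio.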

[9] = molecular target: NRAS Q61K (Homo sapiens (Human), UniProt P01111+P62937, Q61K); assay: as above
Outline: as §2

[10] = molecular target: NRAS WT (Homo sapiens (Human), UniProt P01111+P62937); assay: as above
Outline: as §2

[11] = molecular target: K-Ras G12C(GMP-PNP) binding to BRAF RBD (Homo sapiens (Human), UniProt P01116+P62937, G12C); assay: Disruption of BRAF RBD interaction with K-Ras (FRET / MOA assay), K-Ras G12C; details: read-out: KRAS G12C FRET IC50
Outline: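 Incubation of compound (up to 30 μM final, 3-fold steps) with GMP-PNP-type loaded Ras isoform, cyclophilin A and BRAF RBD ran 3 h at 25° C, followed by 1.5 h with detection antibodies. Disruption appears as a reduced TR-FRET ratio compared with DMSO controls, expressed as IC50.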

[12] = molecular target: KRAS G12S binding to BRAF RBD (Homo sapiens (Human), UniProt P01116+P62937, G12S); assay: Ras-Raf disruption/FRET/MOA assay, KRAS G12S
Outline: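 First, test compounds in a 10-point 3-fold series (30 μM final top) were incubated for 3 hours at 25° C with nucleotide-loaded Ras, cyclophilin A and a BRAF RBD construct. Next, Eu anti-His and allophycocyanin anti-GST detection reagents were added for 1.5 hours. Finally, IC50s were derived from loss of TR-FRET signal against DMSO.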

[13] = molecular target: KRAS WT binding to BRAF RBD (Homo sapiens (Human), UniProt P01116+P62937); assay: Ras-Raf disruption/FRET/MOA assay, KRAS WT
Outline: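 Compounds (top 30 μM, 3-fold, 10 points) promote Cyclophilin A (25 μM) ternary complex with His6-Ras-GMPPNP (12.5 nM), disrupting GST-BRAF RBD (50 nM) binding; 3 h, 25°C, 25 mM HEPES pH 7.3, 100 mM NaCl, 5 mM MgCl2. Detection reagents (Eu anti-His 10 nM, APC anti-GST 50 nM) added for 1.5 h; IC50 reported.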

[14] = molecular target: NRAS Q61R (Homo sapiens (Human), UniProt P01111+P62937, Q61R); assay: Ras-Raf disruption/FRET/MOA assay (BRAF RBD, Cyclophilin A)
Outline: as §2

Chain of KRAS G13D (P01116 other isoform, or with tags, fused parts or gaps G13D): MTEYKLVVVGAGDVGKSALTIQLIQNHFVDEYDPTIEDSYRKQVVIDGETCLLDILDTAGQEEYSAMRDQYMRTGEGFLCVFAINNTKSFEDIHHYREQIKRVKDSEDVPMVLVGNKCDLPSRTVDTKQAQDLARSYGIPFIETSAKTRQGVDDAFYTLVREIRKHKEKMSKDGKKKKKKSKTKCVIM
Chain of KRAS G13D (P62937 whole entry): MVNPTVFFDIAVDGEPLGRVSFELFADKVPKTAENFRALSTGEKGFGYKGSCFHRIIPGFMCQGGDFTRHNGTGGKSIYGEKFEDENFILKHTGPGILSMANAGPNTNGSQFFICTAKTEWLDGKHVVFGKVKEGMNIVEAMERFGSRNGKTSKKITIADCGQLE
Chain of NRAS G12C (P01111 whole entry G12C): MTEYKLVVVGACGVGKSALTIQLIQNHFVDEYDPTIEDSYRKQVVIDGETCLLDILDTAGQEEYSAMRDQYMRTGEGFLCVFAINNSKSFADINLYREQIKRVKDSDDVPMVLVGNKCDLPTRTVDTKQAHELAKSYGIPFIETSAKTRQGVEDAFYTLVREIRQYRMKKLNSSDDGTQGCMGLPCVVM
Chain of NRAS G12C (P62937 whole entry): as the sequence (P62937 whole entry) above
Chain of KRAS G12S (P01116 other isoform, or with tags, fused parts or gaps G12S): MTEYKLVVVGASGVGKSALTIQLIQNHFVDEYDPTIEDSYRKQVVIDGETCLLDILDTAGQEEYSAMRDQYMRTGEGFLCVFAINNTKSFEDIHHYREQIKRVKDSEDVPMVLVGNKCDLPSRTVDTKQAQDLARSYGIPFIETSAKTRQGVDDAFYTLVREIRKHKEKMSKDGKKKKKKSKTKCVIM
Chain of KRAS G12S (P62937 whole entry): as the sequence (P62937 whole entry) above
Chain of KRAS G12S binding to BRAF RBD (P01116 other isoform, or with tags, fused parts or gaps G12S): as the sequence (P01116 other isoform, or with tags, fused parts or gaps G12S) above
Chain of KRAS G12S binding to BRAF RBD (P62937 whole entry): as the sequence (P62937 whole entry) above
Chain of KRAS G13C (P01116 other isoform, or with tags, fused parts or gaps G13C): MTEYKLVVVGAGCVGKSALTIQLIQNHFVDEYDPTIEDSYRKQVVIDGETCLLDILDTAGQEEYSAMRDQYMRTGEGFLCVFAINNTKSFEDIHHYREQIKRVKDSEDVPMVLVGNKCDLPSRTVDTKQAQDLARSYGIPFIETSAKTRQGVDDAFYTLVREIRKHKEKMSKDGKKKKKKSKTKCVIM
Chain of KRAS G13C (P62937 whole entry): as the sequence (P62937 whole entry) above
Chain of NRAS Q61K (P01111 whole entry Q61K): as the sequence (P01111 whole entry G12C) above, with C12G, Q61K counted along it
Chain of NRAS Q61K (P62937 whole entry): as the sequence (P62937 whole entry) above
Chain of K-Ras G12C(GMP-PNP) binding to BRAF RBD (P01116 other isoform, or with tags, fused parts or gaps G12C): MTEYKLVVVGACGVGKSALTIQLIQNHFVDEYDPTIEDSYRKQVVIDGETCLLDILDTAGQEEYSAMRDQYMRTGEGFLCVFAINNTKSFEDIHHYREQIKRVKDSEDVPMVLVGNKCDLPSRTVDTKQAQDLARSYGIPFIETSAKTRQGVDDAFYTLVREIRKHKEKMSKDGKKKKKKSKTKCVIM
Chain of K-Ras G12C(GMP-PNP) binding to BRAF RBD (P62937 whole entry, canonical isoform): as the sequence (P62937 whole entry) above
Chain of KRAS G12V (P01116 other isoform, or with tags, fused parts or gaps G12V): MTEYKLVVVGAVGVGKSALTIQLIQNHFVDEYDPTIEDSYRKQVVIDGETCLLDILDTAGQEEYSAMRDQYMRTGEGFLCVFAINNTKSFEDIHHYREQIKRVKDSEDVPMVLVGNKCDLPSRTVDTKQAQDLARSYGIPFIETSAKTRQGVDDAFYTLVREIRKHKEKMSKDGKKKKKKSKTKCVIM
Chain of KRAS G12V (P62937 whole entry): as the sequence (P62937 whole entry) above
Chain of KRAS Q61H (P01116 other isoform, or with tags, fused parts or gaps Q61H): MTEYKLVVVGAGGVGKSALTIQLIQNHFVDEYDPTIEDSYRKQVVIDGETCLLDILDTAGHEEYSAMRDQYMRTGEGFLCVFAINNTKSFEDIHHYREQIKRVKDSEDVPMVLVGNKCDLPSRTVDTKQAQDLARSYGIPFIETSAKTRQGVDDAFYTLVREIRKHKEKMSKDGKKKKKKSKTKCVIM
Chain of KRAS Q61H (P62937 whole entry): as the sequence (P62937 whole entry) above
Chain of KRAS G12C (P01116-2 other isoform, or with tags, fused parts or gaps G12C): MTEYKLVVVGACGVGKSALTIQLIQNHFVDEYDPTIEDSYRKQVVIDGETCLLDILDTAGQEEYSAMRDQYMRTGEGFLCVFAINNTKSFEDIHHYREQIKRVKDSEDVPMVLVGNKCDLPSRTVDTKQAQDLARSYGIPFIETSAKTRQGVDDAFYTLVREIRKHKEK
Chain of KRAS G12C (P62937 whole entry): as the sequence (P62937 whole entry) above
Chain of KRAS WT binding to BRAF RBD (P01116 other isoform, or with tags, fused parts or gaps): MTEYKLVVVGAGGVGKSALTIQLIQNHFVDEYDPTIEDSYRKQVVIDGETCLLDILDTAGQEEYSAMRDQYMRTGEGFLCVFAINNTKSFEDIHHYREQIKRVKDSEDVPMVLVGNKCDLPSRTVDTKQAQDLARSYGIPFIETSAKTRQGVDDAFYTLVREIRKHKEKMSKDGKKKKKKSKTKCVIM
Chain of KRAS WT binding to BRAF RBD (P62937 whole entry): as the sequence (P62937 whole entry) above
Chain of NRAS WT (P01111 whole entry): as the sequence (P01111 whole entry G12C) above, with C12G counted along it
Chain of NRAS WT (P62937 whole entry): as the sequence (P62937 whole entry) above
Chain of KRAS G12D (P01116 other isoform, or with tags, fused parts or gaps G12D): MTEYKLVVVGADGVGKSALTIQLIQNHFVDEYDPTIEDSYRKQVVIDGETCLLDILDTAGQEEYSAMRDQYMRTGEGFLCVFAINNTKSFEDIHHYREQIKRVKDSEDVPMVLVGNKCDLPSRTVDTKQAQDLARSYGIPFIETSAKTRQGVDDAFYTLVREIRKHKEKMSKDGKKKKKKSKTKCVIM
Chain of KRAS G12D (P62937 whole entry): as the sequence (P62937 whole entry) above
Chain of NRAS Q61R (P01111 whole entry Q61R): as the sequence (P01111 whole entry G12C) above, with C12G, Q61R counted along it
Chain of NRAS Q61R (P62937 whole entry): as the sequence (P62937 whole entry) above

Row | Structure (SMILES) | IC50 [1] [µM] | IC50 [2] [µM] | IC50 [3] [µM] | IC50 [4] [µM] | IC50 [5] [µM] | IC50 [6] [µM] | IC50 [7] [µM] | IC50 [8] [µM] | IC50 [9] [µM] | IC50 [10] [µM] | IC50 [11] | IC50 [12] [µM] | IC50 [13] [µM] | IC50 [14] [µM]
1 | CCn1c(-c2cccnc2[C@H](C)OC)c2c3cc(ccc31)-c1cc(O)cc(c1)C[C@H](NC(=O)C1CCC3C1C3(F)F)C(=O)N1CCC[C@H](N1)C(=O)OCC(C)(C)C2 (stereo partly shown) [Compound A181] | 1 to 10 | > 10 | 1 to 10 | 1 to 10 | 0.1 to 1 | 1 to 10 | 0.1 to 1 | 1 to 10 | 1 to 10 | 1 to 10 | 0.01 to 0.1 µM and 0.1 to 1 µM | 0.01 to 0.1 |  | 
2 | CCn1c(-c2cccnc2[C@H](C)OC)c2c3cc(ccc31)-c1cc(O)cc(c1)C[C@H](NC(=O)[C@@H](C(C)C)N(C)C(C)=O)C(=O)N1CCC[C@H](N1)C(=O)OCC(C)(C)C2 [Compound A256] | 1 to 10 | > 10 | 1 to 10 | 1 to 10 | 0.1 to 1 | 1 to 10 |  | 1 to 10 |  |  |  | 0.01 to 0.1 | 0.01 to 0.1 | 
3 | CCn1c(-c2cccnc2[C@H](C)OC)c2c3cc(ccc31)-c1csc(n1)C[C@H](NC(=O)C1CC1)C(=O)N1CCC[C@H](N1)C(=O)OCC(C)(C)C2 [Compound A367] | 0.1 to 1 | 1 to 10 | 0.1 to 1 | 0.1 to 1 | 0.1 to 1 | 1 to 10 | 0.1 to 1 | 0.1 to 1 | 0.1 to 1 | 0.1 to 1 | 0.01 to 0.1 µM | 0.01 to 0.1 | 0.01 to 0.1 | 1 to 10
4 | CCn1c(-c2cccnc2[C@H](C)OC)c2c3cc(ccc31)-c1cc(O)cc(c1)C[C@H](NC(=O)[C@H](C(C)C)N(C)C(=O)[C@H]1CCN(C(=O)[C@@H](C)N(C)C)C1)C(=O)N1CCC[C@H](N1)C(=O)OCC(C)(C)C2 [Compound A386] | 0.01 to 0.1 | 0.01 to 0.1 | 0.01 to 0.1 | 0.1 to 1 | 0.01 to 0.1 | 0.01 to 0.1 |  | 0.01 to 0.1 |  |  | 0.01 to 0.1 µM |  | 0.01 to 0.1 | 
5 | CCn1c(-c2cccnc2[C@H](C)OC)c2c3cc(ccc31)-c1cc(O)cc(c1)C[C@H](NC(=O)[C@H](C(C)C)N(C)C(=O)C1CNCCNC1)C(=O)N1CCC[C@H](N1)C(=O)OCC(C)(C)C2 [Compound A432] | 0.01 to 0.1 | 0.1 to 1 | 0.1 to 1 | 1 to 10 | 0.01 to 0.1 | 0.01 to 0.1 |  | 0.01 to 0.1 |  |  | 0.01 to 0.1 µM |  | 0.01 to 0.1 | 
6 | CCn1c(-c2cccnc2[C@H](C)OC)c2c3cc(ccc31)-c1csc(n1)C[C@H](NC(=O)[C@H](C(C)C)N(C)C(=O)N1CCO[C@@]3(CCN(C)C3)C1)C(=O)N1CCC[C@H](N1)C(=O)OCC(C)(C)C2 [Compound A436] | 0.1 to 1 | 0.1 to 1 | 0.1 to 1 | 0.1 to 1 | 0.1 to 1 | 0.1 to 1 | 0.1 to 1 | 0.01 to 0.1 | 0.1 to 1 | 0.1 to 1 | 0.01 to 0.1 µM |  | 0.01 to 0.1 | 0.1 to 1
7 | CCn1c(-c2cccnc2[C@H](C)OC)c2c3cc(ccc31)-c1csc(n1)C[C@H](NC(=O)[C@H](C(C)C)N(C)C(=O)N1CCN(C(=O)[C@@H]3CCCN3C)CC1)C(=O)N1CCC[C@H](N1)C(=O)OCC(C)(C)C2 [Compound A596] | 0.01 to 0.1 | 0.1 to 1 | 0.1 to 1 | 0.1 to 1 | 0.1 to 1 | 0.1 to 1 | 0.01 to 0.1 | 0.01 to 0.1 |  | 0.01 to 0.1 | 0.01 to 0.1 µM | 0.01 to 0.1 |  | 0.1 to 1
8 | CCn1c(-c2cccnc2[C@H](C)OC)c2c3cc(ccc31)-c1csc(n1)[C@@H](OC)[C@H](NC(=O)[C@H](C(C)C)N(C)C(=O)N(C)C)C(=O)N1CCC[C@H](N1)C(=O)OCC(C)(C)C2 [Compound A598, (2S)—N-((6^3S,3S,4S,Z)-1^1-ethyl-3-methoxy-1^2-(2-((S)-1-methoxyethyl)pyridin-3-yl)-10,10-dimethyl-5,7-dioxo-6^1,6^2,6^3,6^4,6^5,6^6-hexahydro-1^1H-8-oxa-2 (4,2)-thiazola-1 (5,3)-indola-6 (1,3)-pyridazinacycloundecaphane-4-yl)-3-methyl-2-(1,3,3-trimethylureido) butanamide] | 0.01 to 0.1 | 1 to 10 | 0.1 to 1 | 0.1 to 1 | 0.1 to 1 | 0.1 to 1 | 0.1 to 1 | 0.01 to 0.1 |  | 0.1 to 1 | 0.01 to 0.1 µM | 0.01 to 0.1 | 0.01 to 0.1 | 0.1 to 1

The next lines start with the values.

Row | IC50 [1] [µM] | IC50 [2] [µM] | IC50 [3] [µM] | IC50 [4] [µM] | IC50 [5] [µM] | IC50 [6] [µM] | IC50 [7] [µM] | IC50 [8] [µM] | IC50 [9] [µM] | IC50 [10] [µM] | IC50 [11] | IC50 [12] [µM] | IC50 [13] [µM] | IC50 [14] [µM] | Structure (SMILES)
9 | 0.1 to 1 | 0.1 to 1 | 0.1 to 1 | 0.1 to 1 | 0.1 to 1 | 0.1 to 1 | 0.1 to 1 | 0.1 to 1 | 1 to 10 | 0.1 to 1 | 0.01 to 0.1 µM |  |  | 1 to 10 | CCn1c(-c2cccnc2[C@H](C)OC)c2c3cc(ccc31)-c1csc(n1)C[C@H](NC(=O)[C@H](C(C)C)N(C)C(=O)N1CC[C@H]1CN)C(=O)N1CCC[C@H](N1)C(=O)OCC(C)(C)C2 [Compound A463]
10 | 0.1 to 1 | 0.1 to 1 | 0.1 to 1 | 0.1 to 1 | 0.1 to 1 | 0.1 to 1 | 0.01 to 0.1 | 0.01 to 0.1 | 0.1 to 1 | 0.01 to 0.1 | 0.01 to 0.1 µM |  |  | 0.1 to 1 | CCn1c(-c2cccnc2[C@H](C)OC)c2c3cc(ccc31)-c1csc(n1)C[C@H](NC(=O)[C@H](C(C)C)N(C)C(=O)N1CCCC13CN(C)C3)C(=O)N1CCC[C@H](N1)C(=O)OCC(C)(C)C2 [Compound A545]
11 | 0.01 to 0.1 | 0.1 to 1 | 0.01 to 0.1 | 0.1 to 1 | 0.1 to 1 | 0.01 to 0.1 | 0.01 to 0.1 | 0.01 to 0.1 | 0.1 to 1 | 0.01 to 0.1 | 0.01 to 0.1 µM |  |  | 0.1 to 1 | CCn1c(-c2cccnc2[C@H](C)OC)c2c3cc(ccc31)-c1csc(n1)C[C@H](NC(=O)[C@H](C(C)C)N(C)C(=O)N1CC[C@@H]1CN)C(=O)N1CCC[C@H](N1)C(=O)OCC(C)(C)C2 [Compound A558]
12 | 0.1 to 1 | 1 to 10 | 0.1 to 1 | 0.1 to 1 | 0.1 to 1 | 0.1 to 1 | 0.1 to 1 | 0.1 to 1 | 0.1 to 1 | 0.1 to 1 | 0.01 to 0.1 µM |  |  | 0.1 to 1 | CCn1c(-c2cccnc2[C@H](C)OC)c2c3cc(ccc31)-c1csc(n1)C[C@H](NC(=O)[C@H](C(C)C)N(C)C(=O)N1CC(O)(CN(C)C)C1)C(=O)N1CCC[C@H](N1)C(=O)OCC(C)(C)C2 [Compound A597]

From patent US20250195521A1 (Revolution Medicines, Inc., priority 2020, published 2025)
